# Source: the RepoRT retention time repository (doi:10.1016/j.chroma.2019.01.023)
# Experiment: RP, Phenomenex Kinetex C18, 150 × 2.1 mm, 1.7 µm, 30 °C, 0.3 mL/min, estimated dead time 1.1 min; A: water + 0.1% formic acid, pH 3; B: acetonitrile + 0.1% formic acid, pH 3; gradient (min/%B) 0/2 14/100 17/100 17.1/2 25/2
# Conditions: stereoisomer not certain
row,LC retention time,SMILES
1,2.54 min,Nc1ncnc2c1ncn2C1CC(O)C(CO)O1 (centres undefined) [DEOXYADENOSINE]
2,1.62 min,O=c1[nH]cnc2nc[nH]c12 [HYPOXANTHINE]
3,5.26 min,NC(=O)c1ccccc1O [SALICYLAMIDE]
4,2.64 min,O=c1[nH]cnc2c1ncn2C1OC(CO)C(O)C1O (centres undefined) [INOSINE]
5,1.65 min,Cc1ncc(CO)c(CO)c1O [PYRIDOXINE]
6,1.64 min,Nc1nc2nc[nH]c2c(=O)[nH]1 [GUANINE]
7,5.82 min,CC(=O)NC(Cc1c[nH]c2ccccc12)C(=O)O (centres undefined) [N-ACETYLTRYPTOPHAN]
8,7.09 min,CC12CCC(=O)C=C1CCC1C2C(O)CC2(C)C1CCC2(O)C(=O)CO (centres undefined) [CORTISOL]
9,3.88 min,Cn1c(=O)c2[nH]cnc2n(C)c1=O [THEOPHYLLINE]
10,3.11 min,CC1OC(n2cnc3c(N)ncnc32)C(O)C1O (centres undefined) [5'-DEOXYADENOSINE]
11,3.82 min,CSCC1OC(n2cnc3c(N)ncnc32)C(O)C1O (centres undefined) [METHYLTHIOADENOSINE]
12,1.82 min,O=c1[nH]c(=O)c2[nH]cnc2[nH]1 [XANTHINE]
13,1.62 min,Nc1cc([O-])cc(C(=O)O)c1 [3-AMINO-5-HYDROXYBENZOATE]

# More lines, now with the values behind:
row,SMILES,LC retention time
1,CC1NC(=O)NC1CCCCCC(=O)O (centres undefined) [DETHIOBIOTIN],5.18 min
2,CSc1ncnc2nc[nH]c12 [THIOPURINE S-METHYLETHER],4.4 min
3,NC(=O)[C@@H](N)Cc1c[nH]c2ccccc12 [L-TRYPTOPHANAMIDE],3.7 min
4,O=C(O)Cc1c[nH]c2ccc(O)cc12 [5-HYDROXYINDOLEACETATE],4.49 min
5,Nc1nc2c(ncn2C2OC(CO)C(O)C2O)c(=O)[nH]1 (centres undefined) [GUANOSINE],2.67 min
6,CC(C)(CO)C(O)C(=O)NCCC(=O)O (centres undefined) [PANTOTHENATE],3.4 min
7,CC(C)=CCNc1ncnc2nc[nH]c12 [N6-(DELTA2-ISOPENTENYL)-ADENINE],4.91 min
8,O=c1[nH]c(=O)c2ncn(C3OC(CO)C(O)C3O)c2[nH]1 (centres undefined) [XANTHOSINE],3.01 min
9,Nc1nc2c(ncn2C2CC(O)C(CO)O2)c(=O)[nH]1 (centres undefined) [DEOXYGUANOSINE],2.84 min
10,CC(=O)NCCCC(=O)[O-] [4-ACETAMIDOBUTANOATE],2.47 min
11,CC(=O)NC(CC(C)C)C(=O)O (centres undefined) [N-ACETYLLEUCINE],5.08 min
12,CC(=O)NC(Cc1ccccc1)C(=O)O (centres undefined) [N-ACETYLPHENYLALANINE],5.54 min
13,O=c1ccn(C2CC(O)C(CO)O2)c(=O)[nH]1 (centres undefined) [DEOXYURIDINE],2.39 min
14,O=C(O)CCCCC1SCC2NC(=O)NC21 (centres undefined) [BIOTIN],4.77 min
15,Cc1cn(C2CC(O)C(CO)O2)c(=O)[nH]c1=O (centres undefined) [THYMIDINE],3.21 min
16,"N[C@@H](Cc1cc(I)c(Oc2ccc(O)cc2)c(I)c1)C(=O)O [3,5-DIIODO-L-THYRONINE]",6.44 min
17,COc1cc(C=CC(=O)O)ccc1O [FERULATE],5.76 min
18,O=C(O)c1cc(=O)c2ccccc2[nH]1 [KYNURENATE],4.19 min
19,COc1ccc2[nH]cc(CCNC(C)=O)c2c1 [MELATONIN],6.29 min

# Experiment: HILIC, Waters ACQUITY UPLC BEH Amide, 150 × 2.1 mm, 1.7 µm, 40 °C, 0.5 mL/min, estimated dead time 0.66 min; A: 5% water + 95% acetonitrile; B: 70% water + 30% acetonitrile + 10 mM ammonium formate, pH 6.5; gradient (min/%B) 0/0 2/0 20/70 23/70 24/0 31/0
# Conditions: stereoisomer not certain
row,LC retention time,SMILES
1,2.91 min,Nc1ncnc2c1ncn2C1CC(O)C(CO)O1 (centres undefined) [DEOXYADENOSINE]
2,3.88 min,O=c1[nH]cnc2nc[nH]c12 [HYPOXANTHINE]
3,0.81 min,NC(=O)c1ccccc1O [SALICYLAMIDE]
4,5.52 min,O=c1[nH]cnc2c1ncn2C1OC(CO)C(O)C1O (centres undefined) [INOSINE]
5,3.29 min,Cc1ncc(CO)c(CO)c1O [PYRIDOXINE]
6,6.4 min,Nc1nc2nc[nH]c2c(=O)[nH]1 [GUANINE]
7,2.78 min,CC(=O)NC(Cc1c[nH]c2ccccc12)C(=O)O (centres undefined) [N-ACETYLTRYPTOPHAN]
8,1 min,CC12CCC(=O)C=C1CCC1C2C(O)CC2(C)C1CCC2(O)C(=O)CO (centres undefined) [CORTISOL]
9,1.36 min,Cn1c(=O)c2[nH]cnc2n(C)c1=O [THEOPHYLLINE]
10,2.4 min,CC1OC(n2cnc3c(N)ncnc32)C(O)C1O (centres undefined) [5'-DEOXYADENOSINE]
11,1.99 min,CSCC1OC(n2cnc3c(N)ncnc32)C(O)C1O (centres undefined) [METHYLTHIOADENOSINE]
12,4.97 min,O=c1[nH]c(=O)c2[nH]cnc2[nH]1 [XANTHINE]
13,2.31 min,Nc1cc([O-])cc(C(=O)O)c1 [3-AMINO-5-HYDROXYBENZOATE]

# The next lines start with the molecule.
row,SMILES,LC retention time
1,CC1NC(=O)NC1CCCCCC(=O)O (centres undefined) [DETHIOBIOTIN],2.6 min
2,CSc1ncnc2nc[nH]c12 [THIOPURINE S-METHYLETHER],1.08 min
3,NC(=O)[C@@H](N)Cc1c[nH]c2ccccc12 [L-TRYPTOPHANAMIDE],5.86 min
4,O=C(O)Cc1c[nH]c2ccc(O)cc12 [5-HYDROXYINDOLEACETATE],1.37 min
5,Nc1nc2c(ncn2C2OC(CO)C(O)C2O)c(=O)[nH]1 (centres undefined) [GUANOSINE],7.3 min
6,CC(C)(CO)C(O)C(=O)NCCC(=O)O (centres undefined) [PANTOTHENATE],3.31 min
7,CC(C)=CCNc1ncnc2nc[nH]c12 [N6-(DELTA2-ISOPENTENYL)-ADENINE],1.15 min
8,O=c1[nH]c(=O)c2ncn(C3OC(CO)C(O)C3O)c2[nH]1 (centres undefined) [XANTHOSINE],7.17 min
9,Nc1nc2c(ncn2C2CC(O)C(CO)O2)c(=O)[nH]1 (centres undefined) [DEOXYGUANOSINE],6.48 min
10,CC(=O)NCCCC(=O)[O-] [4-ACETAMIDOBUTANOATE],3.11 min
11,CC(=O)NC(CC(C)C)C(=O)O (centres undefined) [N-ACETYLLEUCINE],4.22 min
12,CC(=O)NC(Cc1ccccc1)C(=O)O (centres undefined) [N-ACETYLPHENYLALANINE],2.48 min
13,O=c1ccn(C2CC(O)C(CO)O2)c(=O)[nH]1 (centres undefined) [DEOXYURIDINE],2.37 min
14,O=C(O)CCCCC1SCC2NC(=O)NC21 (centres undefined) [BIOTIN],5.11 min
15,Cc1cn(C2CC(O)C(CO)O2)c(=O)[nH]c1=O (centres undefined) [THYMIDINE],1.97 min
16,"N[C@@H](Cc1cc(I)c(Oc2ccc(O)cc2)c(I)c1)C(=O)O [3,5-DIIODO-L-THYRONINE]",6.98 min
17,COc1cc(C=CC(=O)O)ccc1O [FERULATE],1.24 min
18,O=C(O)c1cc(=O)c2ccccc2[nH]1 [KYNURENATE],2.69 min
19,COc1ccc2[nH]cc(CCNC(C)=O)c2c1 [MELATONIN],0.88 min
